Results: patent US20230123334A1, “AMINO LIPID COMPOUND, PREPARATION METHOD THEREFOR, AND APPLICATION THEREOF” (SHENZHEN SHENXIN BIOTECHNOLOGY CO., LTD., priority 2020, published 2023)

test system: HEK293 cells; assay: Preliminary screening as DNA vectors, GFP transfection of HEK293 cells; assay type: cell-based; settings: HEK293 cells; lipid/DOPE liposome with 75 ng plasmid DNA (psin-EGFP-IRES-Puro); number of cells expressing GFP divided by total number of nuclei (Hoechst)
Outline: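 First, amino lipid and DOPE were vortexed in sodium acetate buffer (pH 5.6) to form liposomes. Next, these were held with 75 ng EGFP plasmid at room temperature for 30 min. Finally, HEK293 cells were added, cultured at 37° C., Hoechst-stained, and GFP+/total nuclei scored by imaging.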

SMILES	Absolute DNA transfection efficiency in HEK293 cells
CCCCCCCCCCCCNc1nc(NCCCCCCCCC)nc(NCCN2CCN(C)CC2)n1 [Compound N9N12D5]	0.0%
CCCCCCCCCCCCNc1nc(NCCCCCCCCC)nc(NCCCN(C)C)n1 [Compound N9N12D6]	0.0%
CCCCCCCCCCCCNc1nc(NCCCCCCCCC)nc(NCCN(CC)CC)n1 [Compound N9N12D7]	0.0%
CCCCCCCCCCCCNc1nc(NCCCCCCCCC)nc(NCCCN2CCOCC2)n1 [Compound N9N12D8]	0.0%
CCCCCCCCCCCCNc1nc(NCCCCCCCCC)nc(NCCCN2CCN(C)CC2)n1 [Compound N9N12D9]	0.0%
CCCCCCCCCCCCNc1nc(NCCCCCCCCC)nc(NCC2CCN(C)CC2)n1 [Compound N9N12D10]	0.0%
CCCCCCCCCCCCCNc1nc(NCCCCCCCCC)nc(NCCN(C)C)n1 [Compound N9N13D1]	0.4%
CCCCCCCCCCCCCNc1nc(NCCCCCCCCC)nc(NCCN2CCOCC2)n1 [Compound N9N13D2]	0.0%
CCCCCCCCCCCCCNc1nc(NCCCCCCCCC)nc(NCCN2CCCC2)n1 [Compound N9N13D3]	1.0%
CCCCCCCCCCCCCNc1nc(NCCCCCCCCC)nc(NCCN2CCCCC2)n1 [Compound N9N13D4]	0.0%
CCCCCCCCCCCCCNc1nc(NCCCCCCCCC)nc(NCCN2CCN(C)CC2)n1 [Compound N9N13D5]	0.3%
CCCCCCCCCCCCCNc1nc(NCCCCCCCCC)nc(NCCCN(C)C)n1 [Compound N9N13D6]	0.0%
CCCCCCCCCCCCCNc1nc(NCCCCCCCCC)nc(NCCN(CC)CC)n1 [Compound N9N13D7]	0.0%
CCCCCCCCCCCCCNc1nc(NCCCCCCCCC)nc(NCCCN2CCOCC2)n1 [Compound N9N13D8]	0.0%
CCCCCCCCCCCCCNc1nc(NCCCCCCCCC)nc(NCCCN2CCN(C)CC2)n1 [Compound N9N13D9]	0.0%
CCCCCCCCCCCCCNc1nc(NCCCCCCCCC)nc(NCC2CCN(C)CC2)n1 [Compound N9N13D10]	0.3%
CCCCCCCCCCCCCCCNc1nc(NCCCCCCCCC)nc(NCCN(C)C)n1 [Compound N9N15D1]	0.5%
CCCCCCCCCCCCCCCNc1nc(NCCCCCCCCC)nc(NCCN2CCOCC2)n1 [Compound N9N15D2]	0.0%
CCCCCCCCCCCCCCCNc1nc(NCCCCCCCCC)nc(NCCN2CCCC2)n1 [Compound N9N15D3]	0.5%
CCCCCCCCCCCCCCCNc1nc(NCCCCCCCCC)nc(NCCN2CCCCC2)n1 [Compound N9N15D4]	0.0%
CCCCCCCCCCCCCCCNc1nc(NCCCCCCCCC)nc(NCCN2CCN(C)CC2)n1 [Compound N9N15D5]	0.2%

SMILES	Absolute DNA transfection efficiency in HEK293 cells
CCCCCCCCCCCCCCCNc1nc(NCCCCCCCCC)nc(NCCCN(C)C)n1 [Compound N9N15D6]	0.0%
CCCCCCCCCCCCCCCNc1nc(NCCCCCCCCC)nc(NCCN(CC)CC)n1 [Compound N9N15D7]	0.0%
CCCCCCCCCCCCCCCNc1nc(NCCCCCCCCC)nc(NCCCN2CCOCC2)n1 [Compound N9N15D8]	0.2%
CCCCCCCCCCCCCCCNc1nc(NCCCCCCCCC)nc(NCCCN2CCN(C)CC2)n1 [Compound N9N15D9]	0.9%
CCCCCCCCCCCCCCCNc1nc(NCCCCCCCCC)nc(NCC2CCN(C)CC2)n1 [Compound N9N15D10]	0.0%
CCCCCCCCCCCCCCCCNc1nc(NCCCCCCCCC)nc(NCCN(C)C)n1 [Compound N9N16D1]	2.1%
CCCCCCCCCCCCCCCCNc1nc(NCCCCCCCCC)nc(NCCN2CCOCC2)n1 [Compound N9N16D2]	0.0%
CCCCCCCCCCCCCCCCNc1nc(NCCCCCCCCC)nc(NCCN2CCCC2)n1 [Compound N9N16D3]	2.2%
CCCCCCCCCCCCCCCCNc1nc(NCCCCCCCCC)nc(NCCN2CCCCC2)n1 [Compound N9N16D4]	0.8%
CCCCCCCCCCCCCCCCNc1nc(NCCCCCCCCC)nc(NCCN2CCN(C)CC2)n1 [Compound N9N16D5]	0.0%
CCCCCCCCCCCCCCCCNc1nc(NCCCCCCCCC)nc(NCCCN(C)C)n1 [Compound N9N16D6]	2.2%
CCCCCCCCCCCCCCCCNc1nc(NCCCCCCCCC)nc(NCCN(CC)CC)n1 [Compound N9N16D7]	0.0%
CCCCCCCCCCCCCCCCNc1nc(NCCCCCCCCC)nc(NCCCN2CCOCC2)n1 [Compound N9N16D8]	1.8%
CCCCCCCCCCCCCCCCNc1nc(NCCCCCCCCC)nc(NCCCN2CCN(C)CC2)n1 [Compound N9N16D9]	0.0%
CCCCCCCCCCCCCCCCNc1nc(NCCCCCCCCC)nc(NCC2CCN(C)CC2)n1 [Compound N9N16D10]	4.8%
CCCCCCCCCCCCCCCCCCNc1nc(NCCCCCCCCC)nc(NCCN(C)C)n1 [Compound N9N18D1]	4.0%
CCCCCCCCCCCCCCCCCCNc1nc(NCCCCCCCCC)nc(NCCN2CCOCC2)n1 [Compound N9N18D2]	3.6%
CCCCCCCCCCCCCCCCCCNc1nc(NCCCCCCCCC)nc(NCCN2CCCC2)n1 [Compound N9N18D3]	2.0%
CCCCCCCCCCCCCCCCCCNc1nc(NCCCCCCCCC)nc(NCCN2CCCCC2)n1 [Compound N9N18D4]	19.9%
CCCCCCCCCCCCCCCCCCNc1nc(NCCCCCCCCC)nc(NCCN2CCN(C)CC2)n1 [Compound N9N18D5]	0.0%
CCCCCCCCCCCCCCCCCCNc1nc(NCCCCCCCCC)nc(NCCCN(C)C)n1 [Compound N9N18D6]	2.2%

test system: HEK293 cells; assay: Preliminary screening as mRNA vectors, EGFP mRNA transfection of HEK293 cells; assay type: cell-based; settings: HEK293 cells, 96-well plates, EGFP mRNA 50 ng per well; percentage of GFP fluorescent cells relative to total number of cells (Hoechst)
Outline: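 Screening format: EGFP mRNA transfection (50 ng/well) into HEK293 in 10% FBS-supplemented DMEM. Percent green fluorescent cells, normalised to Hoechst nuclear count, gave the value; Lipofectamine2000 was the reference transfectant.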

SMILES	Absolute mRNA transfection efficiency in HEK293 cells
CCCCCCCCCCCCNc1nc(NCCCCCCCCC)nc(NCCN2CCN(C)CC2)n1 [Compound N9N12D5]	3.8%
CCCCCCCCCCCCNc1nc(NCCCCCCCCC)nc(NCCCN(C)C)n1 [Compound N9N12D6]	0.2%
CCCCCCCCCCCCNc1nc(NCCCCCCCCC)nc(NCCN(CC)CC)n1 [Compound N9N12D7]	0.0%
CCCCCCCCCCCCNc1nc(NCCCCCCCCC)nc(NCCCN2CCOCC2)n1 [Compound N9N12D8]	0.0%
CCCCCCCCCCCCNc1nc(NCCCCCCCCC)nc(NCCCN2CCN(C)CC2)n1 [Compound N9N12D9]	0.1%
CCCCCCCCCCCCNc1nc(NCCCCCCCCC)nc(NCC2CCN(C)CC2)n1 [Compound N9N12D10]	0.4%
CCCCCCCCCCCCCNc1nc(NCCCCCCCCC)nc(NCCN(C)C)n1 [Compound N9N13D1]	2.2%
CCCCCCCCCCCCCNc1nc(NCCCCCCCCC)nc(NCCN2CCOCC2)n1 [Compound N9N13D2]	0.6%
CCCCCCCCCCCCCNc1nc(NCCCCCCCCC)nc(NCCN2CCCC2)n1 [Compound N9N13D3]	4.6%
CCCCCCCCCCCCCNc1nc(NCCCCCCCCC)nc(NCCN2CCCCC2)n1 [Compound N9N13D4]	0.5%
CCCCCCCCCCCCCNc1nc(NCCCCCCCCC)nc(NCCN2CCN(C)CC2)n1 [Compound N9N13D5]	0.2%
CCCCCCCCCCCCCNc1nc(NCCCCCCCCC)nc(NCCCN(C)C)n1 [Compound N9N13D6]	0.4%
CCCCCCCCCCCCCNc1nc(NCCCCCCCCC)nc(NCCN(CC)CC)n1 [Compound N9N13D7]	0.3%
CCCCCCCCCCCCCNc1nc(NCCCCCCCCC)nc(NCCCN2CCOCC2)n1 [Compound N9N13D8]	0.0%
CCCCCCCCCCCCCNc1nc(NCCCCCCCCC)nc(NCCCN2CCN(C)CC2)n1 [Compound N9N13D9]	2.5%
CCCCCCCCCCCCCNc1nc(NCCCCCCCCC)nc(NCC2CCN(C)CC2)n1 [Compound N9N13D10]	2.8%
CCCCCCCCCCCCCCCNc1nc(NCCCCCCCCC)nc(NCCN(C)C)n1 [Compound N9N15D1]	2.2%
CCCCCCCCCCCCCCCNc1nc(NCCCCCCCCC)nc(NCCN2CCOCC2)n1 [Compound N9N15D2]	0.2%
CCCCCCCCCCCCCCCNc1nc(NCCCCCCCCC)nc(NCCN2CCCC2)n1 [Compound N9N15D3]	4.7%
CCCCCCCCCCCCCCCNc1nc(NCCCCCCCCC)nc(NCCN2CCCCC2)n1 [Compound N9N15D4]	0.6%
CCCCCCCCCCCCCCCNc1nc(NCCCCCCCCC)nc(NCCN2CCN(C)CC2)n1 [Compound N9N15D5]	1.8%

SMILES	Absolute mRNA transfection efficiency in HEK293 cells
CCCCCCCCCCCCCCCNc1nc(NCCCCCCCCC)nc(NCCCN(C)C)n1 [Compound N9N15D6]	1.7%
CCCCCCCCCCCCCCCNc1nc(NCCCCCCCCC)nc(NCCN(CC)CC)n1 [Compound N9N15D7]	0.8%
CCCCCCCCCCCCCCCNc1nc(NCCCCCCCCC)nc(NCCCN2CCOCC2)n1 [Compound N9N15D8]	1.4%
CCCCCCCCCCCCCCCNc1nc(NCCCCCCCCC)nc(NCCCN2CCN(C)CC2)n1 [Compound N9N15D9]	1.1%
CCCCCCCCCCCCCCCNc1nc(NCCCCCCCCC)nc(NCC2CCN(C)CC2)n1 [Compound N9N15D10]	1.7%
CCCCCCCCCCCCCCCCNc1nc(NCCCCCCCCC)nc(NCCN(C)C)n1 [Compound N9N16D1]	1.5%
CCCCCCCCCCCCCCCCNc1nc(NCCCCCCCCC)nc(NCCN2CCOCC2)n1 [Compound N9N16D2]	0.7%
CCCCCCCCCCCCCCCCNc1nc(NCCCCCCCCC)nc(NCCN2CCCC2)n1 [Compound N9N16D3]	4.3%
CCCCCCCCCCCCCCCCNc1nc(NCCCCCCCCC)nc(NCCN2CCCCC2)n1 [Compound N9N16D4]	4.5%
CCCCCCCCCCCCCCCCNc1nc(NCCCCCCCCC)nc(NCCN2CCN(C)CC2)n1 [Compound N9N16D5]	0.0%
CCCCCCCCCCCCCCCCNc1nc(NCCCCCCCCC)nc(NCCCN(C)C)n1 [Compound N9N16D6]	6.2%
CCCCCCCCCCCCCCCCNc1nc(NCCCCCCCCC)nc(NCCN(CC)CC)n1 [Compound N9N16D7]	1.1%
CCCCCCCCCCCCCCCCNc1nc(NCCCCCCCCC)nc(NCCCN2CCOCC2)n1 [Compound N9N16D8]	0.0%
CCCCCCCCCCCCCCCCNc1nc(NCCCCCCCCC)nc(NCCCN2CCN(C)CC2)n1 [Compound N9N16D9]	1.1%
CCCCCCCCCCCCCCCCNc1nc(NCCCCCCCCC)nc(NCC2CCN(C)CC2)n1 [Compound N9N16D10]	1.2%
CCCCCCCCCCCCCCCCCCNc1nc(NCCCCCCCCC)nc(NCCN(C)C)n1 [Compound N9N18D1]	5.1%
CCCCCCCCCCCCCCCCCCNc1nc(NCCCCCCCCC)nc(NCCN2CCOCC2)n1 [Compound N9N18D2]	25.3%
CCCCCCCCCCCCCCCCCCNc1nc(NCCCCCCCCC)nc(NCCN2CCCC2)n1 [Compound N9N18D3]	4.7%
CCCCCCCCCCCCCCCCCCNc1nc(NCCCCCCCCC)nc(NCCN2CCCCC2)n1 [Compound N9N18D4]	1.3%
CCCCCCCCCCCCCCCCCCNc1nc(NCCCCCCCCC)nc(NCCN2CCN(C)CC2)n1 [Compound N9N18D5]	0.9%
CCCCCCCCCCCCCCCCCCNc1nc(NCCCCCCCCC)nc(NCCCN(C)C)n1 [Compound N9N18D6]	2.5%
